In experiment [1] the target is T1, RyR1 (Sus scrofa, UniProt P16960). As to the kind of experiment: FLT-FRET between D-FKBP and A-CaM bound to RyR1 in skeletal SR membranes (HTS and dose-response). The class given is binding, porcine. Details: RyR1 in skeletal SR membranes, and RyR2 in cardiac SR membranes; from tissue; host or cells: porcine longissimus dorsi muscle (heavy SR vesicles). The settings on record: for Hit in primary FLT-FRET HTS of LOPAC (FRET altered by > 4 SD vs DMSO): 10 μM compound, 2-hour incubation, 30 nM Ca2+, 5 mM GSSG, 0.3 μM A-CaM, 1536-well; for Influence of GSSG vs GSH on the FRET dose-response effect: 5 mM GSSG vs 5 mM GSH; for Effect on FRET: biphasic dose-response, isoform not stated. The method, then:
To confer compatibility with current HTS standards in industrial drug discovery facilities, we miniaturized our screening format from the previously established 384-well plates, requiring 50 μL sample per well[19], to 1536-well plates, requiring 5 μL sample per well. The complete 1280-compound library of pharmacologically active compounds (LOPAC) was applied as 5 nL/well in 40 columns of one 1536-well black-wall/black-bottom plate, with the remaining 8 columns loaded with 5 nL/well of DMSO, as no-drug controls. For each run of the screen, three plates were loaded with either (1) unlabeled HSR, or (2) HSR pre-incubated with donor-FKBP (D-FKBP; donor-only sample), or (3) donor-only sample that was additionally incubated with 0.3 μM acceptor-CaM (A-CaM) for 60 min prior to loading on the plate (donor-acceptor sample). This sub-saturating concentration of A-CaM was used to provide a readout that is sensitive to library compounds that may increase or decrease CaM binding affinity to RyR. To promote a homogenous population of RyR1 resembling that associated with myopathies, final assay conditions also included 30 nM Ca^2+ to represent resting (muscle relaxing) Ca^2+, and 5 mM oxidized glutathione (GSSG), which exaggerates the conditions associated with oxidative stress.
We acquired both FLT waveforms and fluorescence spectra, as previously described[19],[33],[34]. As previously observed, Hit effects were greatest following a 2-hour incubation with the library compounds (Supplementary Fig. 1a). As a result, all FRET results shown in Figs. 1 and 2, and Supplementary Fig. 2 are reported from the 2-hour incubation.
Necessary counter-screens to our pathological RyR1 conditions include evaluating compound effects in healthy conditions and on the cardiac isoform, RyR2. Using the same FRET assay as in HTS, we tested the dose response of key Hits from this screen and the previously HTS-identified RyR1 inhibitor, chloroxine, on healthy (5 mM GSH) and pathological (5 mM GSSG) conditions for both RyR1 in skeletal SR membranes, and RyR2 in cardiac SR membranes.
Skeletal HSR and cardiac CSR (0.4 mg/ml) membranes were independently pre-incubated with 60 nM D-FKBP, for 90 min, at 37 °C, in a solution containing 150 mM KCl, 5 mM GSH, 0.1 mg/mL BSA, 1 µg/mL Aprotinin/Leupeptin, 1 mM DTT and 20 mM PIPES (pH 7.0). To remove unbound D-FKBP, the SR membranes were spun down at 110,000 × g for 20 min, and then resuspended to 1 mg/mL (skeletal HSR) and 2 mg/mL (cardiac CSR) in binding buffer consisting of 150 mM KCl, 5 mM GSSG, 0.1 mg/mL BSA, 1μg/mL Aprotinin/Leupeptin and 20 mM PIPES, pH 7.0. These samples were then incubated with indicated [A-CaM] for 30 min at 22 °C in binding buffer containing 0.065 mM CaCl2 to give 30 nM free Ca^2+ in the presence of 1 mM EGTA (calculated by MaxChelator). This labeled SR sample was applied to the assay plates in 5 μL aliquots using a Multidrop™ Combi reagent dispenser (Thermo Scientific) with a standard-tube. An additional set of the assay plates were loaded with skeletal HSR or cardiac CSR labeled with only D-FKBP (no added A-CaM).
FLT measurements were conducted in a top-read FLT-PR designed and built by Fluorescence Innovations, Inc[33]. AF488 donor fluorescence was excited with a 473-nm microchip laser from Concepts Research Corporation (Belgium, WI), and emission was acquired with 490-nm long-pass and 517/20-nm band-pass filters (Semrock, Rochester, NY).
FLT waveforms for each well were fit based on a one-exponential decay function using least-squares minimization global-analysis software (Fluorescence Innovations, Inc.), as previously described[19],[33]. FRET efficiency (E) was determined as the fractional decrease of donor FLT (τD), due to the presence of acceptor fluorophore (τDA), using the following equation:1 E=1−τDA/τD, […]

The target in experiment [2] is T1, RyR1. As to the kind of experiment: [3H]ryanodine binding to skeletal SR vesicles. The class given is biochemical, porcine. Details: RyR1 in skeletal SR membranes, and RyR2 in cardiac SR membranes; from tissue; host or cells: porcine longissimus dorsi muscle (heavy SR vesicles). The settings on record: 0-20 μM compound, Supplementary Fig. 5. As for the experimental part: To evaluate the functional impact of compounds identified through our FRET-based screen, we first used [^3H]ryanodine binding assays. The level of [^3H]ryanodine binding to RyRs in SR membranes is a well-established index of the RyR channel activity. Given the role of CaM binding in our FRET readout, we investigated whether CaM influences the functional effect of the Hit compounds by carrying out [^3H]ryanodine binding assays in the absence and presence of CaM (300 nM).
Crude sarcoplasmic reticulum (CSR) vesicles were isolated from porcine longissimus dorsi muscle and porcine cardiac left ventricle tissue by differential centrifugation of homogenized tissue. HSR vesicles, which are enriched in RyR1, were isolated by fractionation of crude skeletal SR vesicles using a discontinuous sucrose gradient. All vesicles were flash-frozen and stored at −80 °C. Immediately prior to the fluorescence or [^3H]ryanodine binding studies described below, the SR vesicles were stripped of residual endogenous CaM by incubation with a peptide derived from the CaM binding domain of myosin light chain kinase, followed by sedimentation.
In 96-well plates, HSR vesicles (1 mg/ml) and cardiac CSR vesicles (3 mg/mL) were pre-incubated with 0.02% DMSO or Hit compound, with or without 300 nM CaM, for 30 min at 22 °C in a solution containing 150 mM KCl, 5 mM GSSG, 1 µg/mL Aprotinin/Leupeptin, 1 mM EGTA, and 65 µM or 1.02 mM CaCl2 (as determined by MaxChelator to yield 30 nM or 30 μM of free Ca^2+, respectively), 0.1 mg/mL BSA and 20 mM K-PIPES (pH 7.0). Non-specific and maximal [^3H]ryanodine binding to SR were separately assessed by addition of 40 µM non-radioactively labeled ryanodine or 5 mM Adenylyl-imidodiphosphate, respectively. Such control samples were each distributed over 4 wells/plate. Binding of [^3H]ryanodine (10 and 15 nM for cardiac and skeletal SR, respectively) was determined after a 3-h incubation (37 °C) and filtration through grade GF/B Glass Microfiber filters (Brandel Inc., Gaithersburg, MD, US) using a Brandel Harvester. In 4 mL of Ecolite Scintillation cocktail (MP biomedicals, Solon, OH, USA), [^3H] on filter was counted using a Beckman LS6000 scintillation counter (Fullerton, CA).

The target in another experiment is RyR2 (Sus scrofa, UniProt A0A5G2R1W3). As to the kind of experiment: F-FKBP binding to RyR2 by co-sedimentation with cardiac SR membranes. The settings on record: RyR2, 10 μM Hit, 30 nM Ca2+, 5 mM GSSG or GSH. Details: using co-sedimentation with pig skeletal and cardiac SR membranes; from tissue; host or cells: pig cardiac muscle (crude SR membranes); species or system pig. As for the experimental part:
(§1) The Hit-induced effect on FRET between D-FKBP and A-CaM most likely results from one or the combination of factors, including a shift in CaM and/or FKBP12.6 binding, and/or structure of the RyR complex that shifts the D-A distance. Under the same assay conditions as in the primary screen, we assessed the effect of 10 μM Hit on fluorescent FKBP12.6 (F-FKBP) binding to RyRs, using co-sedimentation with pig skeletal and cardiac SR membranes.
(§2) Supplementary Fig. 3 Effect of HTS Hits on F-FKBP binding to a) RyR1 in skeletal HSR membranes, and b) RyR2
(§3) in cardiac CSR membranes at 30 nM Ca2+ in the presence of 5 mM GSSG or GSH. Results are represented as individual
(§4) data points and means ± SEM, n = 4-5. *P < 0.05 by 2-sided Student’s unpaired t-test. […]

The target of experiment [3] is T1, RyR1. Kind of experiment: F-FKBP binding to RyR1 by co-sedimentation with skeletal SR membranes. Details: using co-sedimentation with pig skeletal and cardiac SR membranes; from tissue; host or cells: pig skeletal muscle (heavy SR membranes); species or system pig. The settings on record: RyR1, 10 μM Hit, 30 nM Ca2+, 5 mM GSSG or GSH. The method, then:
as §1, §2, §3, §4

The test system of experiment [4] is RyR1 Ca^2+ leak in human skinned skeletal muscle fibers. As to the kind of experiment: t-system Ca2+ readout of RyR1 Ca2+ leak in human mechanically skinned skeletal muscle fibers. The settings on record: 1 mM.
Where [5] appears, read: isoform not given (figures show skeletal and cardiac SR).

T1 sequence (P16960 whole entry, canonical isoform): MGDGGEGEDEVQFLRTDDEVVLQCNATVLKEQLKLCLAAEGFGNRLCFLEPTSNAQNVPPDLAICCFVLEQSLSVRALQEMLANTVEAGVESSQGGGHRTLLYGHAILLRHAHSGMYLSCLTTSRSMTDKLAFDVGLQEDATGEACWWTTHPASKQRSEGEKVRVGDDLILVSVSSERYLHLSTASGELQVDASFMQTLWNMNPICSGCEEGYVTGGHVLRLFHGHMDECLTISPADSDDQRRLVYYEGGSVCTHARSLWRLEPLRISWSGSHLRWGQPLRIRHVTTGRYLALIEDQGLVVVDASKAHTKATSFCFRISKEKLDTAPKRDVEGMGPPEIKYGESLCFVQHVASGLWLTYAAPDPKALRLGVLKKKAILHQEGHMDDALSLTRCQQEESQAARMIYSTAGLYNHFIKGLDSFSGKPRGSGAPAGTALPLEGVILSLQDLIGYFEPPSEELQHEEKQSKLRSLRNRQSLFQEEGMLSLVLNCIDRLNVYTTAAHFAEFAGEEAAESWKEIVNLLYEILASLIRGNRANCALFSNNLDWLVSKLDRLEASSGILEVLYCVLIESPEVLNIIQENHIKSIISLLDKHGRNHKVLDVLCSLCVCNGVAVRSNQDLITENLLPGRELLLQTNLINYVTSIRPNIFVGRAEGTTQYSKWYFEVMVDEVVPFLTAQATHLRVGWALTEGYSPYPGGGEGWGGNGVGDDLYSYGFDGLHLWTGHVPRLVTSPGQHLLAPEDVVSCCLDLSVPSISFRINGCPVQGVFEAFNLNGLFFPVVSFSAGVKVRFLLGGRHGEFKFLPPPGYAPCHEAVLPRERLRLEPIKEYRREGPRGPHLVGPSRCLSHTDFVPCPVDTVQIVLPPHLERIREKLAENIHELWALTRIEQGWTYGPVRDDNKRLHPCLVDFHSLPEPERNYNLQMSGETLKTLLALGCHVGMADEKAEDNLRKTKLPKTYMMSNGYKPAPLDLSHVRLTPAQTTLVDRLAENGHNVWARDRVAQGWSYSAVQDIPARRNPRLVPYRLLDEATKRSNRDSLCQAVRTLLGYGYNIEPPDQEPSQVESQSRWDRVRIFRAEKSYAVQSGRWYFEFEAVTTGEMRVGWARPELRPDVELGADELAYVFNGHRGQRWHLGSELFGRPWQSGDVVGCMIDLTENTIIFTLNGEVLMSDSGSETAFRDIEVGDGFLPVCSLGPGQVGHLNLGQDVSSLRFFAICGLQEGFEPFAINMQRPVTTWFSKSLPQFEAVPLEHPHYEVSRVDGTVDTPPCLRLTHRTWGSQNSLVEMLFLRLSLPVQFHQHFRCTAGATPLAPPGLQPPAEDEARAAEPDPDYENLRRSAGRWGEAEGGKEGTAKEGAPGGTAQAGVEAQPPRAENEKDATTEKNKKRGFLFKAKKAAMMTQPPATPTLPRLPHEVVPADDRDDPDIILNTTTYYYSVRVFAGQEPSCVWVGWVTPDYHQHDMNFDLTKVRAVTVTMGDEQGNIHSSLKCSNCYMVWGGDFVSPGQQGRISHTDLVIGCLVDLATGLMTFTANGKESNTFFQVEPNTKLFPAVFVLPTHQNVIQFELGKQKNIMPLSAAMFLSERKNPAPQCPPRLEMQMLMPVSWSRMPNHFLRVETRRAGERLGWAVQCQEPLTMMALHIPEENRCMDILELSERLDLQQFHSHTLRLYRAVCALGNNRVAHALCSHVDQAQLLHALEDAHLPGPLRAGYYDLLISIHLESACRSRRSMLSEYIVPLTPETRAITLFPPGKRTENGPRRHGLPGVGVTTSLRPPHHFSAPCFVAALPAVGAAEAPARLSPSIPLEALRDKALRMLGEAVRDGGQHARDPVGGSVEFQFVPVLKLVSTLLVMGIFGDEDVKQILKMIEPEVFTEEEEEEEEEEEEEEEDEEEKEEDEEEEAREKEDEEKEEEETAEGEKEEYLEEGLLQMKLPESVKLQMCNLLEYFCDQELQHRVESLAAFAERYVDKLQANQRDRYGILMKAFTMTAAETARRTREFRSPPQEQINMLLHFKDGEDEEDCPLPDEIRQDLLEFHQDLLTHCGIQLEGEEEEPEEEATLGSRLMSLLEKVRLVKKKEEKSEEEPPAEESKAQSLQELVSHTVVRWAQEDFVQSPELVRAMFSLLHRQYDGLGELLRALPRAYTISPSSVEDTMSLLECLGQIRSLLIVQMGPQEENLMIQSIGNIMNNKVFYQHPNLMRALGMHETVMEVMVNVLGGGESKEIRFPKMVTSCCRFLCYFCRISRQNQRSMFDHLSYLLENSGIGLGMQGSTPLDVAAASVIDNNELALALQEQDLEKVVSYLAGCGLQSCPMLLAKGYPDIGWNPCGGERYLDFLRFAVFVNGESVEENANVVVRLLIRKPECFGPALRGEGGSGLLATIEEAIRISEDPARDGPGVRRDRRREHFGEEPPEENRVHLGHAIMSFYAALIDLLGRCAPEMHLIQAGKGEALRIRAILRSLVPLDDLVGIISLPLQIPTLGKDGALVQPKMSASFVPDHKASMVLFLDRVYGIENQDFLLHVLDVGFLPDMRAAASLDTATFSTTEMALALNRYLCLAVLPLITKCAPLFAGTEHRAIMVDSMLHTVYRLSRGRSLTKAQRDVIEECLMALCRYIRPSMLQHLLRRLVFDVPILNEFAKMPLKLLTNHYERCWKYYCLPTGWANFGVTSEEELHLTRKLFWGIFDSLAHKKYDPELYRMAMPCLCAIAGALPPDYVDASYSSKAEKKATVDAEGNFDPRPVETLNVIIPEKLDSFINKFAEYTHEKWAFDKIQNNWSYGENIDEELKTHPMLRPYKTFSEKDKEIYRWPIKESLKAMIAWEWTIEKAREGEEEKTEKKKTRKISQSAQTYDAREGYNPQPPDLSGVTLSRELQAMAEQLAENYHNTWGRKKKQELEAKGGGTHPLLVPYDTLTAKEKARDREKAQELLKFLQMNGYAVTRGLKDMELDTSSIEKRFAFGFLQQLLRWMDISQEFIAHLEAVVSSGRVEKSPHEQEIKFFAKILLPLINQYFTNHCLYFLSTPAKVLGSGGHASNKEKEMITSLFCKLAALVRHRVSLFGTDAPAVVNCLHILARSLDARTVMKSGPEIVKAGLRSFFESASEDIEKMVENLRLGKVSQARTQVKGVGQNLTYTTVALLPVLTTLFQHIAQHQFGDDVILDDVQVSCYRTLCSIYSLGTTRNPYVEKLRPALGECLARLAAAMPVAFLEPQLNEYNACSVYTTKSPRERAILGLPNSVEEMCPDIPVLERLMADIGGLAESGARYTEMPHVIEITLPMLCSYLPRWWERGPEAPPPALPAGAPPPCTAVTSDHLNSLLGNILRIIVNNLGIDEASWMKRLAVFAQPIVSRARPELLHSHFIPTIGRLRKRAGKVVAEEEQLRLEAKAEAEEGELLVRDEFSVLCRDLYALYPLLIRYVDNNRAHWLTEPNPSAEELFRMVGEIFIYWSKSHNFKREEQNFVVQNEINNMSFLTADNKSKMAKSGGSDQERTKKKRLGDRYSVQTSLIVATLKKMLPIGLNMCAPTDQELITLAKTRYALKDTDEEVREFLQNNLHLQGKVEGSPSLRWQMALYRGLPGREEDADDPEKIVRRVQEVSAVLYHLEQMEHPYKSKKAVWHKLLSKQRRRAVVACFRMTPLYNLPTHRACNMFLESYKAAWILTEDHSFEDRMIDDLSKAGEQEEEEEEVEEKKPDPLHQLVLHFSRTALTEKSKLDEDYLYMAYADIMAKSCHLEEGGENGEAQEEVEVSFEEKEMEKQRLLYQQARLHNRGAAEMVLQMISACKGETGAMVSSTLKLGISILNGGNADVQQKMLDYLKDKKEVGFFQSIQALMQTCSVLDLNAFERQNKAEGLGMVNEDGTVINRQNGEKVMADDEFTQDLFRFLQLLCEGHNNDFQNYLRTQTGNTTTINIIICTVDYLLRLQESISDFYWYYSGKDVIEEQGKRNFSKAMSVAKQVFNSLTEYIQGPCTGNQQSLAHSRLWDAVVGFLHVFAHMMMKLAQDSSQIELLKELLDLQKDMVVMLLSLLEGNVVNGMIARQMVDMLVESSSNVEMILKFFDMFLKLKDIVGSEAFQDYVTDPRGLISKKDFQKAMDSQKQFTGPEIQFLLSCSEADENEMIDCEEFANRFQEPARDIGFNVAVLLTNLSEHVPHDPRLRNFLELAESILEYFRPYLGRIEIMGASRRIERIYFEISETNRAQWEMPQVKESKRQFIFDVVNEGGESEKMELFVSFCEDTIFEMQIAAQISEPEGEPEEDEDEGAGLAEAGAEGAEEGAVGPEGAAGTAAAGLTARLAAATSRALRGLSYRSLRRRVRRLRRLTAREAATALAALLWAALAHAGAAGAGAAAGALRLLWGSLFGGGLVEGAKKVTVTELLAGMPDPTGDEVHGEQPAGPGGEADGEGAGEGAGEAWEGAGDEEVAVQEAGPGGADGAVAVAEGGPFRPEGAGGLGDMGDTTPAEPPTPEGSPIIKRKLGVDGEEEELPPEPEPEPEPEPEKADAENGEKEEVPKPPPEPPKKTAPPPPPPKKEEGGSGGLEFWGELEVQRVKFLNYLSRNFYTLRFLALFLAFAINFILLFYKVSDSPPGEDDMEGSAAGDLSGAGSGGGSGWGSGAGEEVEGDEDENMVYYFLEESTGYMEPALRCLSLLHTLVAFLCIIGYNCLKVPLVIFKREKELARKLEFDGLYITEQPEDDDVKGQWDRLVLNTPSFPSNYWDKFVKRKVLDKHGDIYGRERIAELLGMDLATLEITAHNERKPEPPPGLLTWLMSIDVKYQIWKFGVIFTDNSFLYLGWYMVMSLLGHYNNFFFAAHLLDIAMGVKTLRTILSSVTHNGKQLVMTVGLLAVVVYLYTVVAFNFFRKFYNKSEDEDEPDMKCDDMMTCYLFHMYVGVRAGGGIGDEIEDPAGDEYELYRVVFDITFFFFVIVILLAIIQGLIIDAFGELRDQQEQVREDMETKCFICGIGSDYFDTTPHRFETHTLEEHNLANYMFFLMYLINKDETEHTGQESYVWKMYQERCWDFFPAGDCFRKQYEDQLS

In the case of `O=C(O)C1=CC(=C(c2ccc(O)c(C(=O)O)c2)c2ccc(O)c(C(=O)O)c2)C=CC1=O` [aurintricarboxylic acid], the “Hit in primary FLT-FRET HTS of LOPAC (FRET altered by > 4 SD vs DMSO)” value (“Hit … (FRET altered by > 4 SD vs DMSO)” below) on RyR1 [1] is recorded as “observe”. Further, the “Compound concentration at which FRET is abolished” value on RyR1 [1] (FRET dose-response, isoform not given (figures show skeletal and cardiac SR)) was at least 10 µM. The “Effect on [3H]ryanodine binding” value on RyR1 [2] is reported as “potent inhibitor”.

Take `C[C@H](O)[C@H](O)[C@H]1CNc2nc(N)[nH]c(=O)c2N1` [(6 R)-BH4]: the “Hit … (FRET altered by > 4 SD vs DMSO)” value on RyR1 [1] is “observe”. As to `CCN(CC)C(=S)SSC(=S)N(CC)CC` [disulfiram], the “Hit … (FRET altered by > 4 SD vs DMSO)” value on RyR1 [1] is “identified”. Also, at RyR1 [1] (setting [5]), the “Influence of GSSG vs GSH on the FRET dose-response effect” value (“Influence of GSSG vs GSH” below) was “more strongly decreased FRET in the presence of GSSG vs. GSH”. In the same order, the values of `N.N.[Cl][Pt][Cl]` [cisplatin] are “decrease in FRET” and “more strongly decreased FRET in the presence of GSSG vs. GSH”. With `C=CC[C@@H]1/C=C(\C)C[C@H](C)C[C@H](OC)[C@H]2O[C@@](O)(C(=O)C(=O)N3CCCC[C@H]3C(=O)O[C@H](/C(C)=C/[C@@H]3CC[C@@H](O)[C@H](OC)C3)[C@H](C)[C@@H](O)CC1=O)[C@H](C)C[C@@H]2OC` [tacrolimus], the “Decrease of F-FKBP binding” value on RyR2 stood at 70%; on RyR1 [3], 20%. As for `CCCCNc1ccc(C(=O)OCCN(C)C)cc1` [Tetracaine, tetracaine], the “RyR inhibition (reference level of leak assay)” value in experiment [4] is “full RyR inhibition”. In the case of `O=C(Nc1cccc(C(=O)Nc2ccc(S(=O)(=O)O)c3cc(S(=O)(=O)O)cc(S(=O)(=O)O)c23)c1)Nc1cccc(C(=O)Nc2ccc(S(=O)(=O)O)c3cc(S(=O)(=O)O)cc(S(=O)(=O)O)c23)c1` [NF023], at RyR1 [1], the “Hit … (FRET altered by > 4 SD vs DMSO)” value was “identified”. `CN=c1nc(-c2ccccc2)n(-c2ccccc2)s1` [SCH-202676]: on RyR1 [1], the “Hit … (FRET altered by > 4 SD vs DMSO)” value is reported as “observe”. For the same compound, at RyR1 [1] (setting [5]), the “Influence of GSSG vs GSH” value is recorded as “more strongly decreased FRET in the presence of GSSG vs. GSH”.

As to `Nc1ccc(-c2nc3ccc(-c4nc5ccc(N)cc5[nH]4)cc3[nH]2)cc1` [Ro 90–7501], the “Influence of GSSG vs GSH” value at RyR1 [1] (setting [5]) is recorded as “very similar FRET dose-response effects with GSSG or GSH”. Moreover, the “Effect on FRET” value is “decreased” at RyR1 [1] (micromolar [compound]) and “increased” on RyR1 [1] (sub-micromolar [compound]). Besides, the “Effect on [3H]ryanodine binding” value at RyR1 [2] is “inhibited”.

On to Reactive Blue, for which the “Hit … (FRET altered by > 4 SD vs DMSO)” value on RyR1 [1] was “observe”.

As for `Oc1ccc2ccccc2c1SSc1c(O)ccc2ccccc12` [IPA-3], on RyR1 [1] (setting [5]), the “Influence of GSSG vs GSH” value is reported as “more strongly decreased FRET in the presence of GSSG vs. GSH”.

The values above are taken from PMC7000700, “RyR1-targeted drug discovery pipeline integrating FRET-based high-throughput screening and human myofiber dynamic Ca^2+ assays” (Scientific Reports, 2020).
